Like-named read-outs stand apart in the source and are kept apart here.
How the values were obtained:
[1] = experimental, cited from earlier work
[2] = Free energy of hydration by Polarizable Continuum Model (PCM); conditions: absolute error vs Exp (hydration)
Description: (§1) Due to unavailability of free energy data for the original COSMO model, the free energies of solvation for the molecule dataset are calculated using MolPro ver. […] The comparisons to other implicit solvent models such as SMD, PCM and COSMO-RS are limited to the overlap of the molecules computed using QM-parameterized force field model. The free energies of hydration as predicted by these implicit solvent models (SMD, PCM) were received.

[3] = Free energy of hydration predicted with the QM-parameterized force field model (ARROW FF), classical MD and PIMD simulation in a water box; conditions: for Arrow PIMD8 Error: absolute error vs Exp (hydration)
Text: For example, the example QM-parameterized force-field molecular simulation process 400 can use Bennett Acceptance Ratio (BAR) to compute the free energy of hydration/solvation of the molecule in water or any other solvent. In some implementations, the analysis of the molecular dynamics simulations includes analysis, predication, and visualization of ensemble properties of atoms/molecules from atomic and molecular trajectories using the optimized parameters of the QM-parameterized force field model (i.e., the quantum mechanics rule-based reasoning technique) and the QM-parameterized force field model.
(§2) In some simulations of the QM-parameterized force field molecular simulation process, the molecules were placed in a water or cyclohexane box of size 32×32×32 Å3. Particle-Mesh Ewald (PME) algorithm was used to compute the electrostatic interactions. A 32×32×32 grid mesh and 5th power spline interpolation order can be used to compute the inverse PME sum. 9 Å cutoffs were used to compute the direct PME sum as well as the exchange and dispersion interactions. Bulk corrections were applied to account for distance cut-off of dispersion interactions. Solvation free energies were computed by decoupling the interactions between the solute and the solvent molecules. Electrostatic, exchange-repulsion and dispersion interactions were switched off simultaneously using a lambda-dependent scaling (a scaling factor power=2 was used) and a soft-coring algorithm (maximal soft-coring radius=1.5 Å, soft-coring radius scaling factor power=1). 15 lambda points unequally spaced (X=0, 0.05, 0.1, 0.2, 0.3, 0.4, 0.5, 0.6, 0.7, 0.75, 0.8, 0.85, 0.9, 0.95, 1.0) were used to decouple the solute-solvent intermolecular interactions.
(§3) In some simulations of the QM-parameterized force field molecular simulation process, energy minimization (10,000 steps) using the steepest descent algorithm was initially performed on all the simulation systems. This was followed by a 50 ps equilibration and 1 ns production runs in the isothermal-isobaric ensemble (NPT). […] Pressure was maintained at 1 atm using a MTTK barostat (relaxation time=5 ps). A Multiple Time Step (MTS) algorithm was used to integrate the equations of motion both for the classical and path-integral runs. […] The calculations were performed using the QM-parameterized force field model.
Using the QM-parameterized force field model, the QM-parameterized force field device can compute or predict the solvation free energies using both the Bennett acceptance ratio (BAR) and thermodynamic integration (TI) method with <dH/dλ> values interpolated by cubic splines. […] FIG. 7A illustrates a <dH/dλ> dependence for desolvation of Anthracene in water. FIG. 7B illustrates accumulated statistical errors for TI calculations of AG desolvation of Anthracene in water.

[4] = Free energy of hydration by COSMO implicit solvent model (MolPro ver. 2012); conditions: absolute error vs Exp (hydration)
Description: as §1

[5] = Free energy of hydration by COSMO-RS
Description: as §1

[6] = Free energy of hydration by Solvation Model Dielectric (SMD) implicit solvent model; conditions: absolute error vs Exp (hydration)
Description: as §1

[7] = CHEX/H2O partition coefficient (log D) predicted with the QM-parameterized force field model (ARROW FF)
Text: In some simulations, the example QM-parameterized force-field molecular simulation process includes using the functional form of the bonded interactions, with force constants and equilibrium values fitted to QM energies at the MP2/aug-cc-pVTZ level of theory. In some simulations, solvents of water and cyclohexane are selected. Cyclohexane (CHEX) is nonpolar and equilibrates relatively quickly. Reliable experimental data for both CHEX solvation free energies, as well as for the CHEX/H2O partition coefficients are used in these simulations.
In some example simulations, solutes containing neutral chemical functional groups, for example carboxylic acids, alkanes, alkenes, aromatics, aldehydes, ketones, alcohols, amides, esters, thiols, sulfides, disulfides and heterocycles, are used. The simulations were performed independently by four groups using their own respective computational resources and architectures, and then averaged. FIGS. 9A-9C show solvation and hydration free energies predictions of various solutes, using the QM-parameterized force field model, in some embodiments.
The straight line is a line of agreement between experimental and simulated/predicted values, and the gray bar is the range or chemical accuracy. […] The molecules here are a subset of those in a) because only those with experimental values for CHEX solvation can be included.

[8] = CHEX/H2O partition coefficient, experimental, cited from earlier work; for Exp (log D): Table 3; for logD Exp (logD): Table 4
[9] = Free energy of solvation in cyclohexane predicted with the QM-parameterized force field model (ARROW FF), MD and PIMD; conditions: Table 4; for CHEX Arrow MD Error: error of MD cyclohexane solvation free energy vs experiment; for CHEX Arrow PIMD4 Error: error of PIMD4 cyclohexane solvation free energy vs experiment
Text: Cyclohexane (CHEX) is nonpolar and equilibrates relatively quickly.
as §2, with “Particle-Mesh” for “In some simulations of the QM-parameterized force field molecular simulation process, the molecules were placed in a water or cyclohexane box of size 32×32×32 Å3. Particle-Mesh”
as §3
Using the QM-parameterized force field model, the QM-parameterized force field device can compute or predict the solvation free energies using both the Bennett acceptance ratio (BAR) and thermodynamic integration (TI) method with <dH/dλ> values interpolated by cubic splines.

[10] = experimental, cited from earlier work; remark: listed apart in the source
[11] = implicit solvent model, values received; cited from earlier work
[12] = implicit solvent model, values received; cited from earlier work; remark: listed apart in the source
[13] = Table 3, free energy of solvation in cyclohexane
[14] = Table 3, absolute error of MD hydration free energy vs experiment
[15] = Table 3, absolute error of PIMD8 hydration free energy vs experiment
[16] = Table 3, absolute error of MD log D vs experiment
[17] = Table 3, absolute error of PIMD log D vs experiment
[18] = Table 4, solvation free energy in cyclohexane
[19] = Table 4, error of MD hydration free energy vs experiment
[20] = Table 4, error of PIMD8 hydration free energy vs experiment
[21] = Table 3, free energy of hydration
[22] = Table 4, neutral amino-acid analogues

| Structure (SMILES) | CHEX Exp (solvation) [1, 13] | PCM Error [2] | water Arrow MD Error [3, 14] | water Arrow PIMD8 Error [3, 15] | Arrow PIMD8 Error [3] | COSMO/Molpro Error [4] | COSMO-RS error [5] | SMD Error [6] | log D Arrow MD Error [7, 16] | log D Arrow PIMD Error [7, 17] | Exp (log D) [8] | CHEX Exp (solvation) [1, 18] | CHEX Arrow MD Error [9] | CHEX Arrow PIMD4 Error [9] | water Arrow MD Error [3, 19] | water Arrow PIMD8 Error [3, 20] | log D Arrow MD Error [7] | water Exp (hydration) [10, 21] | SMD free energy of hydration [11] | PCM free energy of hydration [12] | further results |
| --- | --- | --- | --- | --- | --- | --- | --- | --- | --- | --- | --- | --- | --- | --- | --- | --- | --- | --- | --- | --- | --- |
| CCC(C)=O [2-Butanone] | -14.5 kJ/mol | 0.795 kJ/mol | 1.8 kJ/mol | 0.669 kJ/mol | 0.669 kJ/mol | 17.4 kJ/mol | 0.711 kJ/mol | 0.38 kJ/mol | 0.11 | 0.21 | −0.18 |  |  |  |  |  |  |  |  |  |  |
| Cc1c[nH]c2ccccc12 [3-methyl-indole] | -33.8 kJ/mol |  | 8.37 kJ/mol | 4.27 kJ/mol | 4.27 kJ/mol | 8.16 kJ/mol | 4.14 kJ/mol |  |  |  | 1.61 | -33.8 kJ/mol | 1 kJ/mol | 0.042 kJ/mol | 8.37 kJ/mol | 4.27 kJ/mol | 1.29 | -24.6 kJ/mol |  |  | hydration error ([3]; predicted vs experimental free energy of hydration): -4.2 kJ/mol; log D Arrow PIMD Error [7]: 0.76; logD Arrow MD Error [7]: 1.29; logD Arrow PIMD Error [7]: 0.76; water Exp (hydration) [10, 22]: -24.6 kJ/mol; logD Exp (logD) [8]: 1.61 |
| Cc1c[nH]cn1 [Methylimidazole (His)] |  |  |  |  |  |  |  |  |  |  |  | -23.4 kJ/mol | 1.38 kJ/mol | 0.38 kJ/mol | 1.67 kJ/mol | 0.13 kJ/mol |  |  |  |  | logD Arrow MD Error ([7]; Table 4, error of MD logD vs experiment): 0.05; logD Arrow PIMD Error ([7]; Table 4, error of PIMD logD vs experiment): 0.04; water Exp (hydration) [10, 22]: -42.09 kJ/mol; logD Exp (logD) [8]: −3.28 |
| c1ccc2ccccc2c1 [Napthalene] | -30 kJ/mol | 0.418 kJ/mol | 3.1 kJ/mol | 1 kJ/mol | 1 kJ/mol | 8.83 kJ/mol | 0.962 kJ/mol | 3.77 kJ/mol | 0.19 | 0.01 | 3.50 |  |  |  |  |  |  | -10 kJ/mol | -6.28 kJ/mol | -9.62 kJ/mol |  |
| CCCCC [Pentane] |  |  |  |  |  |  |  |  |  |  | 4.28 |  |  |  |  |  | 0.39 |  |  |  | log D Arrow PIMD Error [7]: 0.17 |
| CCCS [Propanethiol] | -13.1 kJ/mol | 4.81 kJ/mol | 3.39 kJ/mol | 1.67 kJ/mol | 1.67 kJ/mol | 12 kJ/mol |  | 0.628 kJ/mol | 0.38 | 0.36 | 1.52 |  |  |  |  |  |  | -4.39 kJ/mol | -3.77 kJ/mol | -9.2 kJ/mol |  |
| CCCCN [butanamine] | -16.4 kJ/mol | 6.02 kJ/mol | 4.9 kJ/mol | 1.17 kJ/mol | 1.17 kJ/mol | 6.49 kJ/mol | 0.46 kJ/mol | 3.1 kJ/mol |  |  | −0.23 | -16.4 kJ/mol | 0.25 kJ/mol | 0.25 kJ/mol | 4.9 kJ/mol | 1.17 kJ/mol | 0.81 | -17.7 kJ/mol | -14.6 kJ/mol | -11.7 kJ/mol | log D Arrow PIMD Error [7]: 0.16; logD Arrow MD Error [7]: 0.81; logD Arrow PIMD Error [7]: 0.16; water Exp (hydration) [10, 22]: -17.7 kJ/mol; logD Exp (logD) [8]: −0.23 |
| CCCC(=O)O [butyricacid] |  | 8.58 kJ/mol | 1.05 kJ/mol | 1.67 kJ/mol | 1.67 kJ/mol | 9.16 kJ/mol | 0.46 kJ/mol | 3.97 kJ/mol |  |  |  |  |  |  |  |  |  | -26.6 kJ/mol | -22.6 kJ/mol | -18 kJ/mol |  |
| CCCC=O [buytyraldehyde] |  | 2.18 kJ/mol | 2.55 kJ/mol | 0.29 kJ/mol | 0.29 kJ/mol | 18.7 kJ/mol | 0.29 kJ/mol | 0.753 kJ/mol |  |  |  |  |  |  |  |  |  | -13.3 kJ/mol | -12.6 kJ/mol | -15.5 kJ/mol |  |
| C=CCCC [pent-1-ene] |  | 10.4 kJ/mol | 2.47 kJ/mol | 1.05 kJ/mol | 1.05 kJ/mol | 14.9 kJ/mol | 2.34 kJ/mol | 1.17 kJ/mol |  |  |  |  |  |  |  |  |  | 7.03 kJ/mol | 5.86 kJ/mol | -3.35 kJ/mol |  |

— patent US20230129485A1, “SYSTEM AND METHOD FOR DETERMINING MATERIAL PROPERTIES OF MOLECULAR SYSTEMS FROM AN AB-INITIO PARAMETERIZED FORCE-FIELD” (InterX, Inc., priority 2021, published 2023)
